Data as given in article PMC8909834, “An Orally Bioavailable and Highly Efficacious Inhibitor of CDK9/FLT3 for the Treatment of Acute Myeloid Leukemia” (Cancers, 2022).

Experiments:
Experiment in all cases: Kinase Hotspot radiolabel assay
Format in all cases: biochemical
Details in all cases: read-out: % Residual Activity
ALK3/BMPR1A = molecular target: T1, ALK3/BMPR1A (Homo sapiens, UniProt P36894)
T1 construct: purchased Reaction Biology Corporation (Kinase HotSpot)
Summary of the method: (§1)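 1 µM cpd; 369-kinase radiolabel Hotspot panel; Ki run for hits >90% inhibition.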

ALK4/ACVR1B = molecular target: T2, ALK4/ACVR1B (Homo sapiens, UniProt P36896)
T2 construct: purchased Reaction Biology Corporation (Kinase HotSpot)
Summary of the method: as §1

CAMK2b = molecular target: T3, CAMK2b (Homo sapiens, UniProt Q13554)
T3 construct: purchased Reaction Biology Corporation (Kinase HotSpot)
Summary of the method: as §1

CHK2 = molecular target: T4, CHK2 (Homo sapiens, UniProt O96017)
T4 construct: purchased Reaction Biology Corporation (Kinase HotSpot)
Summary of the method: as §1

CK2a2 = molecular target: T5, CK2a2 (Homo sapiens, UniProt P19784)
T5 construct: purchased Reaction Biology Corporation (Kinase HotSpot)
Summary of the method: as §1

DCAMKL1 = molecular target: T6, DCAMKL1 (Homo sapiens, UniProt O15075)
T6 construct: purchased Reaction Biology Corporation (Kinase HotSpot)
Summary of the method: as §1

DLK/MAP3K12 = molecular target: T7, DLK/MAP3K12 (Homo sapiens, UniProt Q12852)
T7 construct: purchased Reaction Biology Corporation (Kinase HotSpot)
Summary of the method: as §1

EPHA3 = molecular target: T8, EPHA3 (Homo sapiens, UniProt P29320)
T8 construct: purchased Reaction Biology Corporation (Kinase HotSpot)
Summary of the method: as §1

ERBB4/HER4 = molecular target: T9, ERBB4/HER4 (Homo sapiens, UniProt Q15303)
T9 construct: purchased Reaction Biology Corporation (Kinase HotSpot)
T9 sequence (Q15303 26-1308): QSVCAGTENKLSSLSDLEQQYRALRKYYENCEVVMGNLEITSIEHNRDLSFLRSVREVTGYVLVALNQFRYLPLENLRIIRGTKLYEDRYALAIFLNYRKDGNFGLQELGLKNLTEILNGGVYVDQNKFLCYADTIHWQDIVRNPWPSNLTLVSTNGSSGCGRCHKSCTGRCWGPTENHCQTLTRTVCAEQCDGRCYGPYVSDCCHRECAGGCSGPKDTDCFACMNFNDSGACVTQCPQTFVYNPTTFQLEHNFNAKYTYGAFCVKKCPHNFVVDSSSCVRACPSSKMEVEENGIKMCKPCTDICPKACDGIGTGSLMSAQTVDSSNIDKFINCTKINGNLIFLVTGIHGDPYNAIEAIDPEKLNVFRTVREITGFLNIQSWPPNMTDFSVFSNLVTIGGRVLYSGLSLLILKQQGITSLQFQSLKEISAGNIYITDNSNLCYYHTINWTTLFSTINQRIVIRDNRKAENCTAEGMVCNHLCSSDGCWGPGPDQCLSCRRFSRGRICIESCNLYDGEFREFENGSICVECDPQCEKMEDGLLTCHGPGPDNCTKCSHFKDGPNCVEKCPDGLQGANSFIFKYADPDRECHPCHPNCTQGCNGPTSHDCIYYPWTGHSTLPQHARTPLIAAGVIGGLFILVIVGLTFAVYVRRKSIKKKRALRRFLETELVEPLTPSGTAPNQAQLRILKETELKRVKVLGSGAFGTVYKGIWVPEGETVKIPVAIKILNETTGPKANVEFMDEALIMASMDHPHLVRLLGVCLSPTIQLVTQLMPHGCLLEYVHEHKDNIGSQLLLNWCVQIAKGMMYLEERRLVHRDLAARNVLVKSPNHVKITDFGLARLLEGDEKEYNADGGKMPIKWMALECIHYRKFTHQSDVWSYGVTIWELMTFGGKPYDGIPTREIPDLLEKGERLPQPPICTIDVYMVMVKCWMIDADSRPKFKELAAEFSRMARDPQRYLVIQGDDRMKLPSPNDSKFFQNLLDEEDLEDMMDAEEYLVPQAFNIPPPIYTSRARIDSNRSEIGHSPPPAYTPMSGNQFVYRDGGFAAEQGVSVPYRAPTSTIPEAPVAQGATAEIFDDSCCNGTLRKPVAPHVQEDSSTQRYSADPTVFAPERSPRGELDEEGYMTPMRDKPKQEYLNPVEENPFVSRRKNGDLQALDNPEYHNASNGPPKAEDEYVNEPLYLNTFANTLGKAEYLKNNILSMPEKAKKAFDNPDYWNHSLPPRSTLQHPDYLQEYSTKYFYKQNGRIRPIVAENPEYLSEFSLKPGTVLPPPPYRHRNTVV
Summary of the method: as §1

FGFR4 = molecular target: T10, FGFR4 (Homo sapiens, UniProt P22455)
T10 construct: purchased Reaction Biology Corporation (Kinase HotSpot)
Summary of the method: as §1

GRK6 = molecular target: T11, GRK6 (Homo sapiens, UniProt P43250)
T11 construct: purchased Reaction Biology Corporation (Kinase HotSpot)
Summary of the method: as §1

IKKa/CHUK = molecular target: T12, IKKa/CHUK (Homo sapiens, UniProt O15111)
T12 construct: purchased Reaction Biology Corporation (Kinase HotSpot)
T12 sequence (O15111 whole entry): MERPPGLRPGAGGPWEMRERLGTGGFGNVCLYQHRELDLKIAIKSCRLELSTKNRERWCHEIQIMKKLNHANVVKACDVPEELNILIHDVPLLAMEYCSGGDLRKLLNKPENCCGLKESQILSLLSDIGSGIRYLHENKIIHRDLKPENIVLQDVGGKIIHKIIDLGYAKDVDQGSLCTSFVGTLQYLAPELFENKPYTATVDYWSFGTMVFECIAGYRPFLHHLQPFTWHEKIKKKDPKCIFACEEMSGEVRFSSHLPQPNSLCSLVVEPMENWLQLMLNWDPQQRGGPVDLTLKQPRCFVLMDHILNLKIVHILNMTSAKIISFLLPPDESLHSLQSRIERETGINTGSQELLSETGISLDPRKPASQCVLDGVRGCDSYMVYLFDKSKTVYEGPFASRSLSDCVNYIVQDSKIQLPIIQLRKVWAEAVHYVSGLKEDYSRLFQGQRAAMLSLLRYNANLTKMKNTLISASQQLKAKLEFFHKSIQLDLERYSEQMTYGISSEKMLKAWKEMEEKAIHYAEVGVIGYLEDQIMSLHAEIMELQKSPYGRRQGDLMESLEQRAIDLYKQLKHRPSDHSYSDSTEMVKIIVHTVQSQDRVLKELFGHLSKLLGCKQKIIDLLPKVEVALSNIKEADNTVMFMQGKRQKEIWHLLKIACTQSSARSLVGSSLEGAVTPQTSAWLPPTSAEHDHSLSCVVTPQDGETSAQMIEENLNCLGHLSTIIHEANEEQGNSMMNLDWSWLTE
Summary of the method: as §1

JNK1 = molecular target: T13, JNK1 (Homo sapiens, UniProt P45983)
T13 construct: purchased Reaction Biology Corporation (Kinase HotSpot)
Summary of the method: as §1

KSR1 = molecular target: T14, KSR1 (Homo sapiens, UniProt Q8IVT5)
T14 construct: purchased Reaction Biology Corporation (Kinase HotSpot)
Summary of the method: as §1

LOK/STK10 = molecular target: T15, LOK/STK10 (Homo sapiens, UniProt O94804)
T15 construct: purchased Reaction Biology Corporation (Kinase HotSpot)
Summary of the method: as §1

MEK3 = molecular target: T16, MEK3 (Homo sapiens, UniProt P46734)
T16 construct: purchased Reaction Biology Corporation (Kinase HotSpot)
Summary of the method: as §1

MEK5 = molecular target: T17, MEK5 (Homo sapiens, UniProt Q13163)
T17 construct: purchased Reaction Biology Corporation (Kinase HotSpot)
T17 sequence (Q13163 whole entry): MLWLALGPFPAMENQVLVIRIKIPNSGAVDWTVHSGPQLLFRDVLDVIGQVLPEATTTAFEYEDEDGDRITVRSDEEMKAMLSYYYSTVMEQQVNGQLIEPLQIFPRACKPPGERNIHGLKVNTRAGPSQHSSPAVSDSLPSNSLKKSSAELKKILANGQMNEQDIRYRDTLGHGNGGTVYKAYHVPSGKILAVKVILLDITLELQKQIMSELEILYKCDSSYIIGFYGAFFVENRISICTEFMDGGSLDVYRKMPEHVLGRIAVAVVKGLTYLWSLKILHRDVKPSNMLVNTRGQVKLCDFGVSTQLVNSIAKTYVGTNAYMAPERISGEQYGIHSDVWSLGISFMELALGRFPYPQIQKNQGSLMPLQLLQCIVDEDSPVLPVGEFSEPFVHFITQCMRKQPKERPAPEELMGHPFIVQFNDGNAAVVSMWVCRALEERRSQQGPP
Summary of the method: as §1

MEKK1 = molecular target: T18, MEKK1 (Homo sapiens, UniProt Q13233)
T18 construct: purchased Reaction Biology Corporation (Kinase HotSpot)
Summary of the method: as §1

MLK3/MAP3K11 = molecular target: T19, MLK3/MAP3K11 (Homo sapiens, UniProt Q16584)
T19 construct: purchased Reaction Biology Corporation (Kinase HotSpot)
Summary of the method: as §1

NEK2 = molecular target: T20, NEK2 (Homo sapiens, UniProt P51955)
T20 construct: purchased Reaction Biology Corporation (Kinase HotSpot)
Summary of the method: as §1

OSR1/OXSR1 = molecular target: T21, OSR1/OXSR1 (Homo sapiens, UniProt O95747)
T21 construct: purchased Reaction Biology Corporation (Kinase HotSpot)
T21 sequence (O95747 whole entry): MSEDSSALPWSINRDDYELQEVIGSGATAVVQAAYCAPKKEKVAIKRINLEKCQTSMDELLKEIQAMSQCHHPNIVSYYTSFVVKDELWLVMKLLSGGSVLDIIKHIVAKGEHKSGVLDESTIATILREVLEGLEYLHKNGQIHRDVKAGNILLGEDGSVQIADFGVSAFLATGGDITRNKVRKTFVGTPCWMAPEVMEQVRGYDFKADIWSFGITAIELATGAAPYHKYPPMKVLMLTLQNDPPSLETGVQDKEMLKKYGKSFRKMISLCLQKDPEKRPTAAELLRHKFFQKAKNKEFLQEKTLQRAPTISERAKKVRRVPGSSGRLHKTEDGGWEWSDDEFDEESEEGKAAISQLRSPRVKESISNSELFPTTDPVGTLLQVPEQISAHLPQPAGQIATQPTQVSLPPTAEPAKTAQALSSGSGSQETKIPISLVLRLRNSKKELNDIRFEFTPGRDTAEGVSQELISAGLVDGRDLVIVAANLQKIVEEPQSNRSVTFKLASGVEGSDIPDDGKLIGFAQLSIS
Summary of the method: as §1

PIM2 = molecular target: T22, PIM2 (Homo sapiens, UniProt Q9P1W9)
T22 construct: purchased Reaction Biology Corporation (Kinase HotSpot)
T22 sequence (Q9P1W9 whole entry): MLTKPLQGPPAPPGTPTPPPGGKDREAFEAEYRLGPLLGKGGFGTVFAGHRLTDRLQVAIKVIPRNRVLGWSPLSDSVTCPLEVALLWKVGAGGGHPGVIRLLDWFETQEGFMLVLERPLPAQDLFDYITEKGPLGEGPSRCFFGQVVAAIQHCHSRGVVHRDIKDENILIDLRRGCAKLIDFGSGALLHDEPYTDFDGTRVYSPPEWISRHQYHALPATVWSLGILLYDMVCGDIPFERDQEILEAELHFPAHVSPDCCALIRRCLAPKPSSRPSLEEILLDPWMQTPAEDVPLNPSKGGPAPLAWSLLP
Summary of the method: as §1

PKAcg = molecular target: T23, PKAcg (Homo sapiens, UniProt P22612)
T23 construct: purchased Reaction Biology Corporation (Kinase HotSpot)
T23 sequence (P22612 whole entry): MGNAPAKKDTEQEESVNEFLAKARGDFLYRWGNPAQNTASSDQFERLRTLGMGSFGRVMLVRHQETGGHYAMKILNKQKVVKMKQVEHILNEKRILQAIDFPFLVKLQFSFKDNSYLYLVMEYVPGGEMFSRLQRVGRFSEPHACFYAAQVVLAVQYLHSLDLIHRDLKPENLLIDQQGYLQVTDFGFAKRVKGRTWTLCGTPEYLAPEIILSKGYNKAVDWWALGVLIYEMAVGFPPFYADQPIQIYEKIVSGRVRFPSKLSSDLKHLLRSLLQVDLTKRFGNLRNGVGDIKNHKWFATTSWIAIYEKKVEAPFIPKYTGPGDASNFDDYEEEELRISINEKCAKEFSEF
Summary of the method: as §1

PKCd = molecular target: T24, PKCd (Homo sapiens, UniProt Q05655)
T24 construct: purchased Reaction Biology Corporation (Kinase HotSpot)
Summary of the method: as §1

PKG1b = molecular target: T25, PKG1b (Homo sapiens, UniProt Q13976)
T25 construct: purchased Reaction Biology Corporation (Kinase HotSpot)
Summary of the method: as §1

PKN3/PRK3 = molecular target: T26, PKN3/PRK3 (Homo sapiens, UniProt Q6P5Z2)
T26 construct: purchased Reaction Biology Corporation (Kinase HotSpot)
Summary of the method: as §1

SIK1 = molecular target: T27, SIK1 (Homo sapiens, UniProt P57059)
T27 construct: purchased Reaction Biology Corporation (Kinase HotSpot)
Summary of the method: as §1

STK32B/YANK2 = molecular target: T28, STK32B/YANK2 (Homo sapiens, UniProt Q9NY57)
T28 construct: purchased Reaction Biology Corporation (Kinase HotSpot)
Summary of the method: as §1

TYK1/LTK = molecular target: T29, TYK1/LTK (Homo sapiens, UniProt P29376)
T29 construct: purchased Reaction Biology Corporation (Kinase HotSpot)
T29 sequence (P29376 17-864): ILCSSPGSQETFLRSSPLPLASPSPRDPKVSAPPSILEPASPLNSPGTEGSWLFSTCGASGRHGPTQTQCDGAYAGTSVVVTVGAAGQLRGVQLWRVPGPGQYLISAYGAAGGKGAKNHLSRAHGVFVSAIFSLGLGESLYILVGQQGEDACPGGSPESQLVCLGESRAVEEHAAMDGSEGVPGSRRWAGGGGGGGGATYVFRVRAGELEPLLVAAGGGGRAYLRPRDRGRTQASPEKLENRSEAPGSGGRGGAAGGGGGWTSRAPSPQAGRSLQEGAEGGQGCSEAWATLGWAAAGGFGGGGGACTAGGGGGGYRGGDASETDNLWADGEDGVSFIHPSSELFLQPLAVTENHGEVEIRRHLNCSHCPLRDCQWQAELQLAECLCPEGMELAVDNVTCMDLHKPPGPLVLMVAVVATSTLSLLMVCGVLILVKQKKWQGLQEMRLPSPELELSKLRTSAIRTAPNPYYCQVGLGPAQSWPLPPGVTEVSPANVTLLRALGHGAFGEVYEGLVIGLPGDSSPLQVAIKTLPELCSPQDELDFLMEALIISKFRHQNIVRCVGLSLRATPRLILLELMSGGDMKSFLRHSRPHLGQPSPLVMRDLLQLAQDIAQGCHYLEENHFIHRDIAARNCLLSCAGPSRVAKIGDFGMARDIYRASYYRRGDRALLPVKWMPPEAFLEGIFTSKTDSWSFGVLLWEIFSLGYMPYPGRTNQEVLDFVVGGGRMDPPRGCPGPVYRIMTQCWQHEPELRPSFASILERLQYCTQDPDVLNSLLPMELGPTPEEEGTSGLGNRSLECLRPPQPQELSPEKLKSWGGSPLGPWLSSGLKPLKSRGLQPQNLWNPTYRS
Summary of the method: as §1

YSK4/MAP3K19 = molecular target: T30, YSK4/MAP3K19 (Homo sapiens, UniProt Q56UN5)
T30 construct: purchased Reaction Biology Corporation (Kinase HotSpot)
Summary of the method: as §1

T1 sequence (P36894 24-532): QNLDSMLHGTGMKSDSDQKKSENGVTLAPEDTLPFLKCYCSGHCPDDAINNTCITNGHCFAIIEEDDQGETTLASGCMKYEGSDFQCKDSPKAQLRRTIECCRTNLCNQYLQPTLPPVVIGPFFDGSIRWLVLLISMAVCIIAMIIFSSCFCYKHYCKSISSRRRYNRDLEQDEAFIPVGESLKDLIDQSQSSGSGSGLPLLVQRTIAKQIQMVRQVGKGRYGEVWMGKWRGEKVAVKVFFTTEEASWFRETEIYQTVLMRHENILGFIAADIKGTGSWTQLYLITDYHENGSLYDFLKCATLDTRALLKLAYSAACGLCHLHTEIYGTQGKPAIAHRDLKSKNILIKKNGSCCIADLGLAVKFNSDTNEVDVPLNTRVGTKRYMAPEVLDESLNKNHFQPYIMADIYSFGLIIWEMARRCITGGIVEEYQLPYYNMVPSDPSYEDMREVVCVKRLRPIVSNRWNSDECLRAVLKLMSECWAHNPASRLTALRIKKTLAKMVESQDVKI

For `Cc1cnc(N[C@H]2CC[C@H](N)CC2)nc1-c1cnc2ccc(-c3ccccc3)cn12` [CDDD11-8], the remaining activity at 1 µM (ALK3/BMPR1A) was 98%, the remaining activity at 1 µM (ALK4/ACVR1B) was 95.3% and the remaining activity at 1 µM (CAMK2b) was 23.5%. For the same molecule, the remaining activity at 1 µM (CHK2) was 97.2%, the remaining activity at 1 µM (CK2a2) was 74.7% and the remaining activity at 1 µM (DCAMKL1) was 113%. The remaining activity at 1 µM (DLK/MAP3K12) was 45.8%, the remaining activity at 1 µM (EPHA3) was 94% and the remaining activity at 1 µM (ERBB4/HER4) was 96.9%. The remaining activity at 1 µM (FGFR4) was 104%, the remaining activity at 1 µM (GRK6) was 98.5% and the remaining activity at 1 µM (IKKa/CHUK) was 98.5%. The remaining activity at 1 µM (JNK1) was 105%, the remaining activity at 1 µM (KSR1) was 92.3% and the remaining activity at 1 µM (LOK/STK10) was 55.8%. The remaining activity at 1 µM (MEK3) was 71.5%, the remaining activity at 1 µM (MEK5) was 99.6% and the remaining activity at 1 µM (MEKK1) was 103%. The remaining activity at 1 µM (MLK3/MAP3K11) was 45.1%, the remaining activity at 1 µM (NEK2) was 90.7% and the remaining activity at 1 µM (OSR1/OXSR1) was 101%. For the same molecule, the remaining activity at 1 µM (PIM2) was 94.5%, the remaining activity at 1 µM (PKAcg) was 86.7% and the remaining activity at 1 µM (PKCd) was 47.6%. It also gave a remaining activity at 1 µM (PKG1b) of 77.5%, a remaining activity at 1 µM (PKN3/PRK3) of 81% and a remaining activity at 1 µM (SIK1) of 39.7%. The remaining activity at 1 µM (STK32B/YANK2) was 96.7%, the remaining activity at 1 µM (TYK1/LTK) was 90.8% and the remaining activity at 1 µM (YSK4/MAP3K19) was 63.5%.
